Earlier results in patent US10004754B2, “ANP fragment adjuvant therapy to standard of care (SOC) diuretic treatment” (MADELEINE PHARMACEUTICALS PTY LTD, priority 2014, dated 2018).

Tested on: ADCHF patients
Details: cited from earlier work

For “nesiritide: A recombinant form of human BNP, approved by the FDA for the treatment of ADCHF”, the “diuresis in ADCHF patients” value (Gottlieb, 2013) is listed as “does not increase diuresis” and the “patient mortality or re-hospitalisation rate” value (O'Conner et al., 2011) is listed as “not associated with a change”.
